PubChem BioAssay AID2060899 (Molecular Pharmacology Branch, DTP, NCI, 2025)
Several values for one entry are separate records, joined by “and”; a condition that tells them apart may be missing. Identical values can stand only once. Values belong to the compound of their own block, whether it stands above or below them.

Test system: 565726-208-R1-J5-PDC complex spheroids, growth inhibition
Assay: Anticancer human tumor 565726-208-R1-J5-PDC patient-derived pancreatic adenocarcinoma cell line growth inhibition [RAS]
Details: for viability, T/C: stronger effect = lower value
Procedure, shortened: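 Agents were tested in combination matrices in half-log decrements from a top concentration at or near clinical Cmax (10 microM if undetermined). Targets were multi-cell spheroids of tumour lines plus HUVEC and MSC stromal cells.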

[1] = curve of first compound, second compound 0.000949 µM
[2] = curve of first compound, second compound 0.003 µM
[3] = curve of first compound, second compound 0.00949 µM
[4] = curve of first compound, second compound 0.03 µM
[5] = curve of first compound, second compound 0.0949 µM
[6] = curve of first compound, second compound 0.3 µM
[7] = second compound 0.000949 µM, first compound 0.0316 µM
[8] = second compound 0.000949 µM, first compound 0.1 µM
[9] = second compound 0.000949 µM, first compound 0.316 µM
[10] = second compound 0.000949 µM, first compound 1 µM
[11] = second compound 0.003 µM, first compound 0.0316 µM
[12] = second compound 0.003 µM, first compound 0.1 µM
[13] = second compound 0.003 µM, first compound 0.316 µM
[14] = second compound 0.003 µM, first compound 1 µM
[15] = second compound 0.00949 µM, first compound 0.0316 µM
[16] = second compound 0.00949 µM, first compound 0.1 µM
[17] = second compound 0.00949 µM, first compound 0.316 µM
[18] = second compound 0.00949 µM, first compound 1 µM
[19] = second compound 0.03 µM, first compound 0.0316 µM
[20] = second compound 0.03 µM, first compound 0.1 µM
[21] = second compound 0.03 µM, first compound 0.316 µM
[22] = second compound 0.03 µM, first compound 1 µM
[23] = second compound 0.0949 µM, first compound 0.0316 µM
[24] = second compound 0.0949 µM, first compound 0.1 µM
[25] = second compound 0.0949 µM, first compound 0.316 µM
[26] = second compound 0.0949 µM, first compound 1 µM
[27] = second compound 0.3 µM, first compound 0.0316 µM
[28] = second compound 0.3 µM, first compound 0.1 µM
[29] = second compound 0.3 µM, first compound 0.316 µM
[30] = second compound 0.3 µM, first compound 1 µM
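Also: spheroids exposed to compounds for seven days before readout.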
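For viability, T/C in this document: 100% = DMSO vehicle control viability.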

IC50 [1]: 0.0824 µM
IC50 [2]: 0.0772 µM
IC50 [3]: 0.0723 µM
IC50 [4]: 0.0704 µM
IC50 [5]: 0.0772 µM
IC50 [6]: 0.044 µM
Compound: Nc1ccn(C2OC(CO)C(O)C2(F)F)c(=O)n1 (stereo not drawn) + CCn1c(-c2cccnc2C(C)OC)c2c3cc(ccc31)N1CCOC(CC(NC(=O)C(C(C)C)N(C)C(=O)C3(F)CCN(C(=O)C#CC(C)(C)N(C)C)CC3)C(=O)N3CCCC(N3)C(=O)OCC(C)(C)C2)C1
viability, T/C (second compound 0.000949 µM, first compound 0.00316 µM): 107%
viability, T/C (second compound 0.000949 µM, first compound 0.01 µM): 91.8%
viability, T/C [7]: 68.1%
viability, T/C [8]: 47%
viability, T/C [9]: 32.3%
viability, T/C [10]: 27.9%
viability, T/C (second compound 0.003 µM, first compound 0.00316 µM): 110%
viability, T/C (second compound 0.003 µM, first compound 0.01 µM): 88.6%
viability, T/C [11]: 69.2%
viability, T/C [12]: 40.9%
viability, T/C [13]: 38.6%
viability, T/C [14]: 29.6%
viability, T/C (second compound 0.00949 µM, first compound 0.00316 µM): 97.5%
viability, T/C (second compound 0.00949 µM, first compound 0.01 µM): 91.2%
viability, T/C [15]: 66%
viability, T/C [16]: 42.5%
viability, T/C [17]: 36.1%
viability, T/C [18]: 26.2%
viability, T/C (second compound 0.03 µM, first compound 0.00316 µM): 90.1%
viability, T/C (second compound 0.03 µM, first compound 0.01 µM): 90.2%
viability, T/C [19]: 62.7%
viability, T/C [20]: 43.3%
viability, T/C [21]: 33.6%
viability, T/C [22]: 22.8%
viability, T/C (second compound 0.0949 µM, first compound 0.00316 µM): 85.1%
viability, T/C (second compound 0.0949 µM, first compound 0.01 µM): 88.4%
viability, T/C [23]: 71.9%
viability, T/C [24]: 43%
viability, T/C [25]: 31.4%
viability, T/C [26]: 24.4%
viability, T/C (second compound 0.3 µM, first compound 0.00316 µM): 81.8%
viability, T/C (second compound 0.3 µM, first compound 0.01 µM): 75.4%
viability, T/C [27]: 52.6%
viability, T/C [28]: 37.6%
viability, T/C [29]: 30.8%
viability, T/C [30]: 21.2%

Compound: CC(C)n1nc(-c2ccc3oc(N)nc3c2)c2c(N)ncnc21
viability, T/C (compound 0.00316 µM): 84% [middle of 4 runs]
viability, T/C (compound 0.01 µM): 66% [middle of 4 runs]
viability, T/C (compound 0.0316 µM): 54.3% [middle of 4 runs]

IC50 [1]: > 10 µM
IC50 [2]: > 10 µM
IC50 [3]: > 10 µM
IC50 [4]: > 10 µM
IC50 [5]: > 10 µM
IC50 [6]: 8.09 µM
Compound: NC1c2ccccc2OC12CCN(c1cnc3c(N4CCCc5ncccc54)n[nH]c3n1)CC2 (stereo not drawn) + CCn1c(-c2cccnc2C(C)OC)c2c3cc(ccc31)N1CCOC(CC(NC(=O)C(C(C)C)N(C)C(=O)C3(F)CCN(C(=O)C#CC(C)(C)N(C)C)CC3)C(=O)N3CCCC(N3)C(=O)OCC(C)(C)C2)C1
viability, T/C [7]: 82.5%
viability, T/C [8]: 77.5%
viability, T/C [9]: 72.6%
viability, T/C [10]: 60.9%
viability, T/C (second compound 0.000949 µM, first compound 3.16 µM): 65.7%
viability, T/C (second compound 0.000949 µM, first compound 10 µM): 56.9%
viability, T/C [11]: 82.6%
viability, T/C [12]: 76.8%
viability, T/C [13]: 70%
viability, T/C [14]: 65%
viability, T/C (second compound 0.003 µM, first compound 3.16 µM): 62.9%
viability, T/C (second compound 0.003 µM, first compound 10 µM): 60.5%
viability, T/C [15]: 76.3%
viability, T/C [16]: 85.5%
viability, T/C [17]: 70%
viability, T/C [18]: 65%
viability, T/C (second compound 0.00949 µM, first compound 3.16 µM): 64.8%
viability, T/C (second compound 0.00949 µM, first compound 10 µM): 55.5%
viability, T/C [19]: 85.4%
viability, T/C [20]: 76.3%
viability, T/C [21]: 73.4%
viability, T/C [22]: 62.7%
viability, T/C (second compound 0.03 µM, first compound 3.16 µM): 58.8%
viability, T/C (second compound 0.03 µM, first compound 10 µM): 58.5%
viability, T/C [23]: 78.8%
viability, T/C [24]: 75.6%
viability, T/C [25]: 71.5%
viability, T/C [26]: 65%
viability, T/C (second compound 0.0949 µM, first compound 3.16 µM): 58.5%
viability, T/C (second compound 0.0949 µM, first compound 10 µM): 57%
viability, T/C [27]: 72.8%
viability, T/C [28]: 68.2%
viability, T/C [29]: 68.8%
viability, T/C [30]: 59.5%
viability, T/C (second compound 0.3 µM, first compound 3.16 µM): 54.2%
viability, T/C (second compound 0.3 µM, first compound 10 µM): 49.5%

IC50 (curve of first compound, second compound 0.00316 µM): > 10 µM
IC50 (curve of first compound, second compound 0.01 µM): > 10 µM
IC50 (curve of first compound, second compound 0.0316 µM): > 10 µM
IC50 (curve of first compound, second compound 0.1 µM): > 10 µM
IC50 (curve of first compound, second compound 0.316 µM): > 10 µM
IC50 (curve of first compound, second compound 1 µM): > 10 µM
Compound: CC(Nc1ccc2c(c1)OCCn1cc(N3C(=O)OCC3C(F)F)nc1-2)C(N)=O (stereo not drawn) + C=CC(=O)N1CCN(c2nc(OCC3CCCN3C)nc3c(F)c(-c4nc(N)cc(C)c4C(F)(F)F)c(Cl)cc23)C(C)C1
viability, T/C (second compound 0.00316 µM, first compound 0.0316 µM): 87.9%
viability, T/C (second compound 0.00316 µM, first compound 0.1 µM): 124%
viability, T/C (second compound 0.00316 µM, first compound 0.316 µM): 93.7%
viability, T/C (second compound 0.00316 µM, first compound 1 µM): 67.5%
viability, T/C (second compound 0.00316 µM, first compound 3.16 µM): 92.8%
viability, T/C (second compound 0.00316 µM, first compound 10 µM): 86.4%
viability, T/C (second compound 0.01 µM, first compound 0.0316 µM): 95.4%
viability, T/C (second compound 0.01 µM, first compound 0.1 µM): 139%
viability, T/C (second compound 0.01 µM, first compound 0.316 µM): 79.8%
viability, T/C (second compound 0.01 µM, first compound 1 µM): 66%
viability, T/C (second compound 0.01 µM, first compound 3.16 µM): 100%
viability, T/C (second compound 0.01 µM, first compound 10 µM): 89%
viability, T/C (second compound 0.0316 µM, first compound 0.0316 µM): 121%
viability, T/C (second compound 0.0316 µM, first compound 0.1 µM): 128%
viability, T/C (second compound 0.0316 µM, first compound 0.316 µM): 78.6%
viability, T/C (second compound 0.0316 µM, first compound 1 µM): 67.9%
viability, T/C (second compound 0.0316 µM, first compound 3.16 µM): 104%
viability, T/C (second compound 0.0316 µM, first compound 10 µM): 96.2%
viability, T/C (second compound 0.1 µM, first compound 0.0316 µM): 149%
viability, T/C (second compound 0.1 µM, first compound 0.1 µM): 130%
viability, T/C (second compound 0.1 µM, first compound 0.316 µM): 69.4%
viability, T/C (second compound 0.1 µM, first compound 1 µM): 66.8%
viability, T/C (second compound 0.1 µM, first compound 3.16 µM): 62.7%
viability, T/C (second compound 0.1 µM, first compound 10 µM): 85.1%
viability, T/C (second compound 0.316 µM, first compound 0.0316 µM): 141%
viability, T/C (second compound 0.316 µM, first compound 0.1 µM): 139%
viability, T/C (second compound 0.316 µM, first compound 0.316 µM): 86.3%
viability, T/C (second compound 0.316 µM, first compound 1 µM): 79.8%
viability, T/C (second compound 0.316 µM, first compound 3.16 µM): 66.3%
viability, T/C (second compound 0.316 µM, first compound 10 µM): 102%
viability, T/C (second compound 1 µM, first compound 0.0316 µM): 126%
viability, T/C (second compound 1 µM, first compound 0.1 µM): 147%
viability, T/C (second compound 1 µM, first compound 0.316 µM): 90.2%
viability, T/C (second compound 1 µM, first compound 1 µM): 64.9%
viability, T/C (second compound 1 µM, first compound 3.16 µM): 85.3%
viability, T/C (second compound 1 µM, first compound 10 µM): 89.8%

IC50 (curve of compound): > 10 µM and 9.95 µM
Compound: CC(Nc1ccc2c(c1)OCCn1cc(N3C(=O)OCC3C(F)F)nc1-2)C(N)=O (stereo not drawn)
viability, T/C (compound 0.0316 µM): 94.9% [middle of 4 runs]
viability, T/C (compound 0.316 µM): 79.3% [middle of 4 runs]
viability, T/C (compound 1 µM): 72% [middle of 4 runs]
